Measurements published in ChEMBL document CHEMBL3137667, “[Drug-induced liver injury; fourteenth updated edition of the bibliographic database of liver injuries and related drugs]” (Gastroenterol Clin Biol, 2004).

Tests used:
[1] = Highest frequency of moderate liver toxicity observed during clinical trials, expressed as a percentage. [column '% BIOL' in source]; details: human
[2] = Highest frequency of acute liver toxicity observed during clinical trials, expressed as a percentage. [column '% AIGUE' in source]; details: human
[3] = Times to onset, minimal and maximal, observed in the indexed observations. [column 'DELAI' in source]; details: human
[4] = human, serum
[5] = human, serum; remark: listed apart in the source
[6] = human
[7] = human; remark: listed apart in the source
[8] = human; remark: listed apart in the source
[9] = human, serum, 4383 h
[10] = human; remark: listed apart in the source
[11] = human; remark: listed apart in the source
[12] = human; remark: listed apart in the source
[13] = human; remark: listed apart in the source
[14] = human; remark: listed apart in the source
[15] = human; remark: listed apart in the source
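For Hepatotoxicity (association with vascular disease) in this document: count of indexed literature references reporting vascular liver injury in humans, e.g. peliosis hepatitis, hepatic veno-occlusive disease or Budd-Chiari syndrome.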
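For Hepatotoxicity (benign tumour) in this document: value is a count of indexed literature references citing a benign tumour confirmed by histopathology.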
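For Hepatotoxicity (choleostasis) in this document: human cholestatic liver injury, shown by histopathology or by peak ALT or AST elevation over alkaline phosphatase ratio below 2, value counts indexed literature reports.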
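For Hepatotoxicity (chronic liver disease) in this document: chronic liver injury confirmed by histopathology or persistently raised serum aminotransferase activity beyond 6 months, value given as the count of indexed literature references.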
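For Hepatotoxicity (cirrhosis) in this document: value is a count of indexed literature references reporting cirrhosis confirmed by histopathology.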
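For Hepatotoxicity (cytolytic) in this document: human cytolytic liver injury, shown by histopathology or by a ratio above 5 of peak ALT or AST elevation to alkaline phosphatase elevation, value counts indexed references.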
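For Hepatotoxicity (granulomatous hepatitis) in this document: value is a count of indexed literature references reporting granulomatous liver disease confirmed by histopathology.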
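For Hepatotoxicity (malignant tumour) in this document: malignant tumour confirmed by histopathology, value gives the count of indexed literature references reporting it.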
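For Hepatotoxicity (severe hepatitis) in this document: human clinical data: severe hepatitis, meaning potentially life-threatening liver failure or clinically observed cases, the value counts how many indexed literature references report it.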
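For Hepatotoxicity (steatosis) in this document: steatosis confirmed by histopathology, value is the count of indexed references.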

| SMILES | Hepatotoxicity (moderate) [1] [%] | Hepatotoxicity (acute) [2] [%] | Hepatotoxicity (time to onset) [3] | Hepatotoxicity (moderate) [4] | Hepatotoxicity (acute) [5] | Hepatotoxicity (cytolytic) [6] | Hepatotoxicity (choleostasis) [7] | Hepatotoxicity (severe hepatitis) [8] | Hepatotoxicity (chronic liver disease) [9] | Hepatotoxicity (cirrhosis) [10] | Hepatotoxicity (granulomatous hepatitis) [11] | Hepatotoxicity (association with vascular disease) [12] | Hepatotoxicity (steatosis) [13] | Hepatotoxicity (malignant tumour) [14] | Hepatotoxicity (benign tumour) [15] | further results |
| --- | --- | --- | --- | --- | --- | --- | --- | --- | --- | --- | --- | --- | --- | --- | --- | --- |
| O=P(O)(O)C(Sc1ccc(Cl)cc1)P(=O)(O)O [TILUDRONIC ACID] | 0.9 | 0 | 8 weeks | 1 | 0 | 0 | 0 | 0 | 0 | 0 | 0 | 0 | 0 | 0 | 0 | – |
| CN1C(=O)CC(=O)N(c2ccccc2)c2cc(Cl)ccc21 [CLOBAZAM] | 2.1 | 0 | 1 week | 1 | 0 | 0 | 0 | 0 | 0 | 0 | 0 | 0 | 0 | 0 | 0 | – |
| CC(=O)O[C@H]1C(=O)[C@@]2(C)[C@H]([C@H](OC(=O)c3ccccc3)[C@]3(O)C[C@H](OC(=O)[C@H](O)[C@@H](NC(=O)c4ccccc4)c4ccccc4)C(C)=C1C3(C)C)[C@]1(OC(C)=O)CO[C@@H]1C[C@@H]2O [PACLITAXEL] | – | – | 1 days | 7 | 5 | – | – | – | 0 | 0 | – | 0 | 0 | 0 | 0 | Hepatotoxicity (moderate) ([1]; Liver): 50%; Hepatotoxicity (acute) ([2]; Liver): 6%; Hepatotoxicity (cytolytic) ([6]; Liver): 3; Hepatotoxicity (choleostasis) ([7]; Liver): 0; Hepatotoxicity (severe hepatitis) ([8]; Liver): 0; Hepatotoxicity (granulomatous hepatitis) ([11]; Liver): 0 |
| C[C@H]1[C@H](OC(=O)CCC(=O)O)O[C@@H]2O[C@@]3(C)CC[C@H]4[C@H](C)CC[C@@H]1[C@@]24OO3 [ARTESUNATE] | 0 | 6.7 | 48 days | 0 | 1 | 1 | 0 | 0 | 0 | 0 | 0 | 0 | 0 | 0 | 0 | – |
| COc1c(C)c2c(c(O)c1C/C=C(\C)CCC(=O)OCCN1CCOCC1)C(=O)OC2 [MYCOPHENOLATE MOFETIL] | 33.3 | 0 | 2 weeks | 3 | 1 | 1 | 0 | 0 | 0 | 0 | 0 | 0 | 0 | 0 | 0 | – |
| CCOC(=O)[C@H](CCc1ccccc1)N[C@@H](C)C(=O)N1[C@H](C(=O)O)C[C@H]2CCCC[C@@H]21 [TRANDOLAPRIL] | 1.1 | 0 | 2 weeks | 2 | 1 | 0 | 1 | 0 | 0 | 0 | 0 | 0 | 0 | 0 | 0 | – |
| CO[C@@]1(NC(=O)CSC[C@@H](N)C(=O)O)C(=O)N2C(C(=O)O)=C(CSc3nnnn3C)CS[C@@H]21 [CEFMINOX] | – | – | 9 days | 12 | 2 | – | – | – | 0 | 0 | – | 0 | 0 | 0 | 0 | Hepatotoxicity (moderate) ([1]; Liver): 16.7%; Hepatotoxicity (acute) ([2]; Liver): 0.1%; Hepatotoxicity (cytolytic) ([6]; Liver): 0; Hepatotoxicity (choleostasis) ([7]; Liver): 0; Hepatotoxicity (severe hepatitis) ([8]; Liver): 0; Hepatotoxicity (granulomatous hepatitis) ([11]; Liver): 0 |
| CC[C@@H](CO)NC(=O)[C@@H]1C=C2c3cccc4c3c(cn4C)C[C@H]2N(C)C1 [METHYSERGIDE] | 0 | 0 | 5 years | 1 | 0 | 0 | 0 | 0 | 0 | 0 | 0 | 0 | 0 | 0 | 0 | – |
| COc1cccc(OC)c1C(=O)N[C@@H]1C(=O)N2[C@@H]1SC(C)(C)[C@@H]2C(=O)O [METHICILLIN] | 18.7 | 0 | 3 days - 3 weeks | 1 | 0 | 0 | 0 | 0 | 0 | 0 | 0 | 0 | 0 | 0 | 0 | – |
| CC(=O)[C@@]1(O)CC[C@H]2[C@@H]3C=C(C)C4=CC(=O)CC[C@@H]4[C@H]3CC[C@@]21C [NOMEGESTROL] | 0 | 0 | 4 months - 5 months | 0 | 2 | 2 | 0 | 2 | 0 | 0 | 0 | 0 | 0 | 0 | 0 | – |
| C(=C\c1ccccc1)/CN1CCN(C(c2ccccc2)c2ccccc2)CC1 [CINNARIZINE] | 0 | 0 | 3 weeks - 7 weeks | 0 | 2 | 0 | 2 | 0 | 0 | 0 | 0 | 0 | 0 | 0 | 0 | – |
